Experimental data taken from the OligoGym collection.
Values joined by “and” are separate entries in the source; they are usually repeats but may differ in a detail not shown here. Identical values can stand only once. After the bases stand the sugars from the 5' end (letter, count) and the backbone: PS all phosphorothioate, else s phosphorothioate and o phosphodiester by linkage. Methylation of C is not given here. e = 2'-O-(2-methoxyethyl) (MOE); d = 2'-deoxy (DNA)

Biological target: DGAT2
Details: ASO

Sequence | target mRNA inhibition (HepG2, 2.5 µM) | target mRNA inhibition (HepG2, 10 µM) | target mRNA inhibition (HepG2, 0.12 µM) | target mRNA inhibition (HepG2, 20 µM) [%]
ATCCGGACTGAATGTCACCT (sugars e5 d10 e5, PS) | 80% and 72% | 84% and 91% |  | 
ATGAGGGTCTTCATGGCTGA (sugars e5 d10 e5, PS) |  |  | 7% | 
ATGGAGCTCAGAGACTCAGC (sugars e2 d13 e5, PS) |  |  | 73% | 
ATGTATTTCTGGAACTTCTT (sugars e5 d10 e5, PS) |  |  | 45% | 
ATTAGCAGTAGCTCAGGAGA (sugars e5 d10 e5, PS) |  |  | 48% | 
ATTGCCACTCCCATTCTTTG (sugars e2 d13 e5, PS) |  |  | 53% | 
ATTGCCACTCCCATTCTTTG (sugars e3 d14 e3, PS) |  |  | 40% | 
ATTTCTTATCTTCAATCCTC (sugars e5 d10 e5, PS) | 57% | 95% |  | 
CAAAAACATGACAGCCAGGG (sugars e5 d10 e5, PS) | 85% and 75% | 96% and 90% |  | 
CAATGCCAATGCCTAGGTCA (sugars e5 d10 e5, PS) | 70% | 90% |  | 
CAATGGGAATGGTATCGCAC (sugars e5 d10 e5, PS) | 68% and 62% | 93% and 85% |  | 
CACCATTTTCACAAGGAGAA (sugars e5 d10 e5, PS) | 86% | 82% |  | 
CACTGGAGCACTGAGATGAC (sugars e5 d10 e5, PS) |  |  | 27% and 48% | 
CAGAATGAGACAGGCAGCCC (sugars e5 d10 e5, PS) | 37% | 82% |  | 
CAGAGTTATCCTCAATTCAC (sugars e5 d10 e5, PS) |  |  | 34% | 
CAGATCTTCATTACATGATT (sugars e5 d10 e5, PS) | 71% | 89% |  | 
CAGCAGATGATGTCCTGCCT (sugars e5 d10 e5, PS) | 66% | 88% |  | 
CAGCAGGTTGTGTGTCTTCA (sugars e5 d10 e5, PS) | 16% and 39% | 63% and 79% | 66% and 75% | 
CAGCAGTCTGCCTGATTCCC (sugars e5 d10 e5, PS) | 66% | 94% |  | 
CAGCCAAGTGAAGTAGAGCA (sugars e5 d10 e5, PS) |  |  | 41% | 
CAGCCTGGACAAGTCCTGCC (sugars e2 d13 e5, PS) |  |  | 72% | 
CAGGAAGGCACAGAAAAGTG (sugars e5 d10 e5, PS) |  |  | 28% | 
CAGGACCCACTGGAGCACTG (sugars e5 d10 e5, PS) |  |  | 80% | 83

Sequence | target mRNA inhibition (HepG2, 2.5 µM) | target mRNA inhibition (HepG2, 10 µM) | target mRNA inhibition (HepG2, 0.12 µM) | target mRNA inhibition (HepG2, 20 µM) [%]
CAGGTAGAGTTCTATTGCTT (sugars e5 d10 e5, PS) | 68% and 55% | 89% and 82% |  | 
CAGGTTCATCTGCCTTGACG (sugars e5 d10 e5, PS) | 69% | 72% |  | 
CAGGTTGTGTGTCTTCACCA (sugars e5 d10 e5, PS) |  | 74% | 68% and 76% | 87
CAGTGCCTACAGCAGAGGGA (sugars e5 d10 e5, PS) |  |  | 0% | 
CAGTGCTTTCTAAGTACCCT (sugars e5 d10 e5, PS) | 68% and 69% | 91% and 86% |  | 
CAGTGGGCCCCAGGTGGCTC (sugars e5 d10 e5, PS) |  |  | 46% | 
CATACTGGCATCTGGCAGGG (sugars e5 d10 e5, PS) | 65% | 83% |  | 
CATTCTTTGAAAGCAAATAG (sugars e5 d10 e5, PS) |  |  | 15% | 
CATTGCCACTCCCATTCTTT (sugars e3 d14 e3, PS) |  |  | 46% | 
CCAACTCTCAGCTACTCCCC (sugars e5 d10 e5, PS) | 95% | 79% |  | 
CCACAGGGCCCTTTCCAGAA (sugars e5 d10 e5, PS) | 58% and 53% | 87% and 85% |  | 
CCACTGGAGCACTGAGATGA (sugars e3 d14 e3, PS) |  |  | 62% | 
CCAGCTGGATGGGAAAGTAG (sugars e5 d10 e5, PS) |  |  | 24% | 
CCAGGGCCTCCATGTACATG (sugars e2 d13 e5, PS) |  |  | 69% | 
CCAGTTTCGGACCCACTGTG (sugars e5 d10 e5, PS) | 28% | 31% | 83% | 65
CCATGTACATGGTGTGGTAC (sugars e5 d10 e5, PS) |  |  | 52% | 
CCCACTGGAGCACTGAGATG (sugars e3 d14 e3, PS) |  |  | 75% | 
CCCAGATTTAGCCACCACCT (sugars e5 d10 e5, PS) | 56% | 72% |  | 
CCCAGTACTTTCTTCTCATG (sugars e5 d10 e5, PS) | 72% | 96% |  | 
CCCAGTTTCGGACCCACTGT (sugars e2 d13 e5, PS) |  |  | 70% | 
CCCAGTTTCGGACCCACTGT (sugars e3 d14 e3, PS) |  |  | 76% | 
CCCAGTTTCGGACCCACTGT (sugars e5 d10 e5, PS) | 24% and 25% | 33% | 85% | 57
CCCATCTCCCAGACCCCTCG (sugars e5 d10 e5, PS) |  |  | 12% | 

Sequence | target mRNA inhibition (HepG2, 2.5 µM) | target mRNA inhibition (HepG2, 10 µM) | target mRNA inhibition (HepG2, 0.12 µM) | target mRNA inhibition (HepG2, 20 µM) [%]
CCCTCTTAGAAGTAATGCTT (sugars e5 d10 e5, PS) |  | 85% and 89% |  | 
CCGGAGTAGGCGGCTATGAG (sugars e5 d10 e5, PS) |  |  | 37% | 
CCTCCTTAGCTTTAATCCAG (sugars e5 d10 e5, PS) | 43% | 82% |  | 
CCTCTGCTTCTTGGGCATCT (sugars e5 d10 e5, PS) | 92% and 91% | 91% and 89% |  | 
CCTGGACAAGTCCTGCCCAT (sugars e2 d13 e5, PS) |  |  | 59% | 
CCTGGTGGTCAGCAGGTTGT (sugars e5 d10 e5, PS) |  |  | 64% | 
CGAAGATCACCTGCTTGTAC (sugars e5 d10 e5, PS) |  |  | 63% | 
CGCGCAGGACCCCGGAGTAG (sugars e2 d13 e5, PS) |  |  | 67% | 
CGGACTGAATGTCACCT (sugars e3 d10 e4, PS) | 60% and 68% | 87% and 83% |  | 
CTCAGAGACTCAGCCGCACC (sugars e2 d13 e5, PS) |  |  | 43% | 
CTCCTGTTTGATGGGTAAAA (sugars e5 d10 e5, PS) | 90% | 80% |  | 
CTGCATAGCTGAGCAAATCC (sugars e5 d10 e5, PS) | 52% | 70% |  | 
CTGCCACCTTCCAGGGAATA (sugars e5 d10 e5, PS) |  |  | 27% | 
CTGCCATTTAATGAGCTTCA (sugars e5 d10 e5, PS) |  | 94% and 95% and 89% |  | 
CTGCTTGTACACTTCATTCT (sugars e5 d10 e5, PS) |  |  | 58% | 
CTGGACAAGTCCTGCCCATC (sugars e2 d13 e5, PS) |  |  | 58% | 
CTGGACAAGTCCTGCCCATC (sugars e5 d10 e5, PS) |  |  | 77% | 
CTGGATGGGAAAGTAGTCTC (sugars e5 d10 e5, PS) |  |  | 38% | 
CTGTGAGGCCAAGGACAGAG (sugars e5 d10 e5, PS) | 50% | 81% |  | 
CTGTGCTCTGTGGGCTCCTC (sugars e5 d10 e5, PS) | 57% | 89% |  | 
CTTCTGGACCCATCGGCCCC (sugars e5 d10 e5, PS) |  |  | 30% | 
CTTCTTCTGGACCCATCGGC (sugars e5 d10 e5, PS) |  |  | 27% | 
CTTGGGTGTGTTCCAGTCAA (sugars e5 d10 e5, PS) |  |  | 5% | 

Sequence | target mRNA inhibition (HepG2, 2.5 µM) | target mRNA inhibition (HepG2, 10 µM) | target mRNA inhibition (HepG2, 0.12 µM) | target mRNA inhibition (HepG2, 20 µM) [%]
CTTGTGCTTGTCGAAGAGCT (sugars e5 d10 e5, PS) | 33% | 66% |  | 
CTTTGAAATCCAATGCACCT (sugars e5 d10 e5, PS) | 65% | 92% |  | 
GAAATCCAATGCACCTTGTA (sugars e5 d10 e5, PS) | 63% | 94% |  | 
GAAGTCAGGCCAAGTGCCAA (sugars e5 d10 e5, PS) |  |  | 26% | 
GAATGGTGTGTTGGCTCCCT (sugars e5 d10 e5, PS) | 54% | 75% |  | 
GACAAAGTCTATCAGGATGC (sugars e5 d10 e5, PS) | 88% and 67% | 92% and 91% |  | 
GACACACAATATCCATGGAC (sugars e5 d10 e5, PS) | 72% | 93% |  | 
GACTCAGTGTCCTCCTTAGC (sugars e5 d10 e5, PS) |  | 73% |  | 
GACTTCCCTTCACAGAATCC (sugars e5 d10 e5, PS) |  |  | 5% | 
GAGATGGTGATAAGGCAGCA (sugars e5 d10 e5, PS) | 46% and 50% | 80% |  | 
GAGCACTTGATCTGGGACCC (sugars e5 d10 e5, PS) | 80% and 71% | 92% and 91% |  | 
GAGCTCAGAGACTCAGCCGC (sugars e3 d14 e3, PS) |  | 72% and 73% | 89% | 
GAGTAGGCGGCTATGAGGGT (sugars e5 d10 e5, PS) |  |  | 11% | 
GAGTATAGAAATTTCACTGA (sugars e5 d10 e5, PS) |  |  | 44% | 
GAGTCTGTGCTGCATCCATG (sugars e5 d10 e5, PS) |  |  | 48% | 
GATAGCATTGCCACTCCCAT (sugars e2 d13 e5, PS) |  |  | 62% | 
GATCACCTGCTTGTACACTT (sugars e5 d10 e5, PS) | 36% | 64% |  | 
GATTATTCTAAAACTCAAAT (sugars e5 d10 e5, PS) |  |  | 0% | 
GATTTGTACTTGAATCCAGG (sugars e5 d10 e5, PS) |  |  | 34% | 
GCAAATAGTCTATGGTGTCC (sugars e5 d10 e5, PS) |  |  | 60% | 
GCACAGCGATGAGCCAGCAA (sugars e5 d10 e5, PS) | 50% and 45% and 69% | 92% and 89% and 94% |  | 
